Laboratory results published in publication PMC7732531 (Frontiers in Pharmacology, 2020).
Read-outs that look alike come from different tables or passages of the source.

Tests used:
[1] = in vitro; type: in vitro ADME; settings: rat
Protocol: (§1) The fraction of unbound YL-IPA08 in plasma and liver microsomes of rat and human, and brain homogenates of rat were determined utilizing Rapid Equilibrium Dialysis method ([Waters et al., 2008]). Rat brain homogenate was harvested in 4-fold volume (w/v) of PBS (pH 7.4). YL-IPA08 were spiked into fresh plasma, rat brain homogenate, liver microsomes (0.2 mg/ml protein) at concentration of 1 µM, and then dialyzed against biomatrices on a shaker at 37°C for 4 h. To avoid the high non-specific binding of YL-IPA08, 0.01% Tween 80 was added in the incubation mixture. At the end of the incubation, protein was precipitated with acetonitrile (containing IS) and analyzed by LC-MS/MS. Phenacetin, quinidine, and warfarin were selected as positive control for the protein binding test.
The unbound fraction of YL-IPA08 in plasma or liver microsomes (ƒu,x) was calculated as shown in Eq. 2, and unbound fraction in the tissue homogenate (ƒu,b) was calculated according to Eq. 3. fu,x = Concbuffer chamber/Concplasma/liver microsomes chamber (2) fu,b = Concbuffer chamber/Concbrain homogenate chamber (3) The measured unbound fractions would be higher when a tissue is homogenized and diluted in buffer, the unbound fractions in an undiluted tissues (ƒu,brain) were calculated using Eq. 4 ([Kalvass and Maurer, 2002]). Undiluted fu,brain=1/D/((1/fu,brain homogenate)−1)+1/D (4) Where D represents the fold of dilution factor in brain homogenates.

[2] = in vivo; settings: male, rat, po, 1 mg/kg
Protocol: (§2) The surgical procedure for portal vein catheter insertion was performed according to reference ([Matsuda et al., 2012]). Male SD rats (250–280 g) were purchased from Beijing Vital River Laboratory Animal Technology Co., Ltd. (Beijing, China). Rats were anesthetized with 2% pentobarbital sodium (0.2–0.3 mg/100 g) intraperitoneally dosed. Cannulation into the jugular vein was performed by the method of Murakami reported ([Murakami et al., 2003]) with minor modification. Briefly, an incision of ∼0.5 cm near right clavicle was made and the jugular vein was exposed. Next, this vein was cannulated with ∼12.5 cm of silicone gel tubing (0.6 mm I.D. × 0.9 mm O.D., Skillsmodel Inc., Beijing, China). The other side of the tubing was passed through the back skin. 2.5 cm midline incision was made in the abdominal cavity close to ensiform process and the portal vein was detached. To prevent bleeding, the portal vein was ligated temporarily as the catheter was inserted. The silicone tubing (22 cm, 0.6 mm I.D. × 0.9 mm O.D., Skillsmodel Inc., Beijing, China) was inserted immediately and fixed by a purse-string suture on the portal vein. The time to reperfusion was about 1 min after intercepted blood flow. In addition, a catheter with trumpet-shaped opening was used to prevent the catheter from slipping out of the vessel and minimize the effect on blood flow. Another end of the catheter was passed subcutaneously to the skin close to the scapula.
(§3) Blood samples were collected at 0, 0.083, 0.25, 0.5, 1, 2, 4, 6, 8 and 12 h. Blood (approximately 100 µl) was collected from the jugular and portal veins into tubes containing heparin on ice and centrifuged within 1 h of collection. Plasma was harvested and stored at −20°C for bioanalysis.
(§4) FaFg was calculated using mass balance method and rat portal blood flow (Qpv) of 32 ml/min/kg, where Rb/p is used to convert plasma concentrations to blood concentrations.

[3] = Bioavailability study in rats (i.v. and p.o.); type: in vivo; settings: male, rat, plasma; for MRT last: read-out: MRT(0–t)
Protocol: Male SD rats (200-240 g) were obtained from Beijing Vital River Laboratory Animal Technology Co., Ltd. Animals were housed in a temperature- and humidity-controlled room with a 12 h light/dark cycle. They were fasted 12 h before the experiments and had ad libitum access to water. The animal experiments were conducted in the Beijing Center for Drug Safety Evaluation and according to a protocol (IACUC-DWZX-2020-691) approved by the Institutional Animal Care and Use Committee of the Center, which followed the guidelines of the Association for Assessment and Accreditation of Laboratory Animal Care International (AAALAC). […] Pharmacokinetic parameters were calculated by the noncompartmental method using WinNonlin 7.0 (Pharsight, CA). The area under the plasma concentration time curve (AUC) from time 0 to the last time point with a measurable concentration (AUC0-t) was calculated by trapezoidal method. Bioavailability (%F) was calculated as the ratio of the mean dose-normalized AUC values for oral and intravenous dosed groups [Fp.o. = […].)]. In vivo plasma clearance and volume of distribution were archived from the pharmacokinetic study via i.v. injection.

[4] = rat, microsomes, 0 h, 1 μM, pH 7.4
[5] = in vitro; type: in vitro ADME; settings: human, plasma
Protocol: as §1
The unbound fraction of YL-IPA08 in plasma or liver microsomes (ƒu,x) was calculated as shown in Eq. 2, and unbound fraction in the tissue homogenate (ƒu,b) was calculated according to Eq. 3. fu,x = Concbuffer chamber/Concplasma/liver microsomes chamber (2) fu,b = Concbuffer chamber/Concbrain homogenate chamber (3) The measured unbound fractions would be higher when a tissue is homogenized and diluted in buffer, the unbound fractions in an undiluted tissues (ƒu,brain) were calculated using Eq. 4 ([Kalvass and Maurer, 2002]). […]

[6] = Stability of YL-IPA08 in rat plasma (LC-MS/MS validation); type: in vitro ADME
Protocol: The quantification of YL-IPA08 in rat plasma was fully validated, and in vitro samples were particularly validated by selectivity, precision, and stability. The calibration curves of YL-IPA08 in rat plasma and in vitro incubates ranged in the concentrations of 0.5–500 ng/ml and 1–1,000 nM, respectively. The intra-day precision and inter-day precision […] were less than 15% at QC concentrations (full methodology validation results were presented in Supplementary Tables S1–S3).

[7] = rat, microsomes, 0 h, 1 μM, pH 7.4; remark: listed apart in the source
[8] = Pharmacokinetics in portal and jugular vein double cannulated rats; settings: double cannulation rat model, if F a is 100%
Protocol: as §2, §3, §4

[9] = Freeze-thaw three cycles, HQC (400ng/ml)
[10] = Freeze-thaw three cycles, LQC (1ng/ml)
[11] = Freeze-thaw three cycles, MQC (20ng/ml)
[12] = In auto-sample for 24 h, HQC (400ng/ml)
[13] = In auto-sample for 24 h, LQC (1ng/ml)
[14] = In auto-sample for 24 h, MQC (20ng/ml)
[15] = Room temperature for 24 h, HQC (400ng/ml)
[16] = Room temperature for 24 h, LQC (1ng/ml)
[17] = Room temperature for 24 h, MQC (20ng/ml)

CCN(Cc1ccccn1)C(=O)Cc1c(-c2ccc(Cl)c(Cl)c2)nc2cc(C)ccn12 [YL-IPA08]
Concentration, Cbuffer chamber ([1]; 4 h, 1 µM): 168.00 ± 5.66 nM | Concentration, Cplasma/microsome chamber ([1]; 4 h, 1 µM): 393.00 ± 18.03 nM | Protein biding (%) ([1]; 4 h, 1 µM): 57.14 ± 2.92% | fraction unbound at 4 h, 1 µM ([1]; microsomes): 0.428 | concentration at 0.5 h ([2]; SD, Plasma concentration): 77 ± 22.7 ng/mL | concentration at 1 h ([2]; SD, Plasma concentration): 75.5 ± 26.7 ng/mL | concentration at 2 h ([2]; SD, Plasma concentration): 78.3 ± 38.3 ng/mL | concentration at 4 h ([2]; SD, Plasma concentration): 34.1 ± 13.6 ng/mL | concentration at 6 h ([2]; SD, Plasma concentration): 11.7 ± 3.9 ng/mL | concentration at 8 h ([2]; SD, Plasma concentration): 5.23 ± 1.47 ng/mL | concentration at 12 h ([2]; SD, Plasma concentration): 1.96 ± 0.66 ng/mL | AUC ([2]; Sprague-Dawley (SD), AUC): 441 ± 93 ng·h/mL | AUC(0-inf) ([3]; SD, iv, i.v. 0.3 mg/kg): 71.3 ± 12.3 ng·h/mL | AUC(0-t) ([3]; SD, iv, i.v. 0.3 mg/kg): 70.6 ± 12.2 ng·h/mL | clearance ([3]; SD, iv, i.v. 0.3 mg/kg): 71.7 ± 11.5 mL/min/kg | half-life ([3]; SD, iv, i.v. 0.3 mg/kg): 1.13 ± 0.07 h | concentration at 0.033 h ([3]; SD, iv, i.v. 0.3 mg/kg, 0.033 h): 220 ± 32.5 ng/mL | concentration at 0.083 h ([3]; SD, iv, i.v. 0.3 mg/kg): 140 ± 36.2 ng/mL | concentration at 0.25 h ([3]; SD, iv, i.v. 0.3 mg/kg): 38.9 ± 5.41 ng/mL | concentration at 0.5 h ([3]; SD, iv, i.v. 0.3 mg/kg): 18.2 ± 1.29 ng/mL | concentration at 1 h ([3]; SD, iv, i.v. 0.3 mg/kg): 8.44 ± 1.06 ng/mL | concentration at 2 h ([3]; SD, iv, i.v. 0.3 mg/kg): 4.3 ± 0.57 ng/mL | concentration at 4 h ([3]; SD, iv, i.v. 0.3 mg/kg): 1.84 ± 0.39 ng/mL | concentration at 6 h ([3]; SD, iv, i.v. 0.3 mg/kg): 1.09 ± 0.22 ng/mL | concentration at 8 h ([3]; SD, iv, i.v. 0.3 mg/kg): 0.81 ± 0.08 ng/mL | concentration at 12 h ([3]; SD, iv, i.v. 0.3 mg/kg): 0.48 ± 0.06 ng/mL | MRT last ([3]; SD, iv, i.v. 0.3 mg/kg): 1.36 ± 0.11 h | Vd ([3]; SD, iv, i.v. 0.3 mg/kg, read-out: Vz): 6.98 ± 0.74 L/kg | AUC(0-inf) ([3]; SD, po, p.o. 1 mg/kg): 13.6 ± 4.37 ng·h/mL | AUC(0-t) ([3]; SD, po, p.o. 1 mg/kg): 12.5 ± 3.88 ng·h/mL | Cmax ([3]; SD, po, p.o. 1 mg/kg): 5.99 ± 1.36 ng/mL | Tmax ([3]; SD, po, p.o. 1 mg/kg): 3 ± 1.8 min | half-life ([3]; SD, po, p.o. 1 mg/kg): 1.66 ± 0.68 h | concentration at 0.083 h ([3]; SD, po, p.o. 1 mg/kg): 5.43 ± 1.96 ng/mL | concentration at 0.25 h ([3]; SD, po, p.o. 1 mg/kg): 5.22 ± 0.65 ng/mL | concentration at 0.5 h ([3]; SD, po, p.o. 1 mg/kg): 3.71 ± 0.79 ng/mL | concentration at 1 h ([3]; SD, po, p.o. 1 mg/kg): 3 ± 0.8 ng/mL | concentration at 2 h ([3]; SD, po, p.o. 1 mg/kg): 1.65 ± 0.44 ng/mL | concentration at 4 h ([3]; SD, po, p.o. 1 mg/kg): 1.02 ± 0.55 ng/mL | concentration at 6 h ([3]; SD, po, p.o. 1 mg/kg): 0.63 ± 0.31 ng/mL | concentration at 8 h ([3]; SD, po, p.o. 1 mg/kg): 0.63 ± 0.25 ng/mL | concentration at 12 h ([3]; SD, po, p.o. 1 mg/kg): 0.56 ± 0.27 ng/mL | MRT last ([3]; SD, po, p.o. 1 mg/kg): 3.35 ± 1.27 h | AUC(0-inf) ([3]; SD, po, p.o. 3 mg/kg): 39.9 ± 9.81 ng·h/mL | AUC(0-t) ([3]; SD, po, p.o. 3 mg/kg): 36.9 ± 9.57 ng·h/mL | Cmax ([3]; SD, po, p.o. 3 mg/kg): 19.2 ± 16.4 ng/mL | Tmax ([3]; SD, po, p.o. 3 mg/kg): 9 ± 10.2 min | half-life ([3]; SD, po, p.o. 3 mg/kg): 2.47 ± 1.54 h | concentration at 0.083 h ([3]; SD, po, p.o. 3 mg/kg): 18.9 ± 16.6 ng/mL | concentration at 0.25 h ([3]; SD, po, p.o. 3 mg/kg): 9.25 ± 4.57 ng/mL | concentration at 0.5 h ([3]; SD, po, p.o. 3 mg/kg): 7.42 ± 3.58 ng/mL | concentration at 1 h ([3]; SD, po, p.o. 3 mg/kg): 6.3 ± 3.02 ng/mL | concentration at 2 h ([3]; SD, po, p.o. 3 mg/kg): 4.07 ± 0.73 ng/mL | concentration at 4 h ([3]; SD, po, p.o. 3 mg/kg): 3.5 ± 0.73 ng/mL | concentration at 6 h ([3]; SD, po, p.o. 3 mg/kg): 2.35 ± 0.96 ng/mL | concentration at 8 h ([3]; SD, po, p.o. 3 mg/kg): 1.95 ± 0.51 ng/mL | concentration at 12 h ([3]; SD, po, p.o. 3 mg/kg): 0.84 ± 0.26 ng/mL | MRT last ([3]; SD, po, p.o. 3 mg/kg): 4.61 ± 1.49 h | AUC(0-inf) ([3]; SD, po, p.o. 10 mg/kg): 107 ± 30.2 ng·h/mL | AUC(0-t) ([3]; SD, po, p.o. 10 mg/kg): 104 ± 29.4 ng·h/mL | Cmax ([3]; SD, po, p.o. 10 mg/kg): 60.9 ± 44.9 ng/mL | Tmax ([3]; SD, po, p.o. 10 mg/kg): 9 ± 10.2 min | half-life ([3]; SD, po, p.o. 10 mg/kg): 2.31 ± 1.32 h | concentration at 0.083 h ([3]; SD, po, p.o. 10 mg/kg): 60.7 ± 45.1 ng/mL | concentration at 0.25 h ([3]; SD, po, p.o. 10 mg/kg): 20.5 ± 8.3 ng/mL | concentration at 0.5 h ([3]; SD, po, p.o. 10 mg/kg): 15.9 ± 4.1 ng/mL | concentration at 1 h ([3]; SD, po, p.o. 10 mg/kg): 10.2 ± 3.5 ng/mL | concentration at 2 h ([3]; SD, po, p.o. 10 mg/kg): 7.1 ± 2.7 ng/mL | concentration at 4 h ([3]; SD, po, p.o. 10 mg/kg): 5.63 ± 2.23 ng/mL | concentration at 6 h ([3]; SD, po, p.o. 10 mg/kg): 4.39 ± 2.71 ng/mL | concentration at 8 h ([3]; SD, po, p.o. 10 mg/kg): 3.61 ± 2.13 ng/mL | concentration at 12 h ([3]; SD, po, p.o. 10 mg/kg): 3.18 ± 1.43 ng/mL | concentration at 24 h ([3]; SD, po, p.o. 10 mg/kg, 24 h): 1.04 ± 0.66 ng/mL | MRT last ([3]; SD, po, p.o. 10 mg/kg): 7.73 ± 2.79 h | bioavailability ([3]; SD, po, printed in the p.o. 3 mg/kg column, read-out: F): 5.59% | bioavailability ([3]; Sprague-Dawley (SD), oral administration (1–10 mg/kg), read-out: bioavailability): ~6% | percent of remaining [4]: 100.00% | fraction unbound at 4 h, 1 µM [5]: 0.001 | Accuracy ([6]; 4℃ for 24 h, HQC (400ng/ml)): 99.8±8.0% | Measured value ([6]; 4℃ for 24 h, HQC (400ng/ml)): 399.00 ± 31.76 ng/mL | Accuracy ([6]; 4℃ for 24 h, LQC (1ng/ml)): 113.0±9.0% | Measured value ([6]; 4℃ for 24 h, LQC (1ng/ml)): 1.13 ± 0.09 ng/mL | Accuracy ([6]; 4℃ for 24 h, MQC (20ng/ml)): 108.7±5.3% | Measured value ([6]; 4℃ for 24 h, MQC (20ng/ml)): 21.73 ± 1.07 ng/mL | Accuracy ([6]; -40℃ for 7 d, HQC (400ng/ml)): 105.1±8.5% | Measured value ([6]; -40℃ for 7 d, HQC (400ng/ml)): 420.33 ± 33.84 ng/mL | Accuracy ([6]; -40℃ for 7 d, LQC (1ng/ml)): 105.0±6.0% | Measured value ([6]; -40℃ for 7 d, LQC (1ng/ml)): 1.05 ± 0.06 ng/mL | Accuracy ([6]; -40℃ for 7 d, MQC (20ng/ml)): 105.0±4.1% | Measured value ([6]; -40℃ for 7 d, MQC (20ng/ml)): 21.00 ± 0.82 ng/mL | Accuracy [6, 9]: 96.8±2.6% | Measured value [6, 9]: 387.33 ± 10.21 ng/mL | Accuracy [6, 10]: 114.0±5.0% | Measured value [6, 10]: 1.14 ± 0.05 ng/mL | Accuracy [6, 11]: 103.0±1.8% | Measured value [6, 11]: 20.60 ± 0.36 ng/mL | Accuracy [6, 12]: 98.6±3.0% | Measured value [6, 12]: 394.33 ± 12.06 ng/mL | Accuracy [6, 13]: 95.0±2.0% | Measured value [6, 13]: 0.95 ± 0.02 ng/mL | Accuracy [6, 14]: 100.4±1.2% | Measured value [6, 14]: 20.07 ± 0.25 ng/mL | Accuracy [6, 15]: 102.5±1.4% | Measured value [6, 15]: 410.00 ± 5.57 ng/mL | Accuracy [6, 16]: 110.0±8.0% | Measured value [6, 16]: 1.10 ± 0.08 ng/mL | Accuracy [6, 17]: 112.5±4.1% | Measured value [6, 17]: 22.50 ± 0.82 ng/mL | percent of remaining [7]: 100.00% | extraction of gut metabolism [8]: 78%
